# Measurements reported in patent US20030135023A1, “Peptide structures useful for competitive modulation of dipeptidyl peptidase IV catalysis” (priority 2001, published 2003).
# pIC50: −log10 of the molar value. Square brackets hold non-standard residues; d marks the D form. Peptide text beside a SMILES is read from it. Tle = CC(C)(C)[C@H](N)C(=O)O
# Biological target: purified porcine DP IV (Sus scrofa, UniProt P22411)
# Experiment: Determination of IC50-values, Gly-Pro-pNA cleavage by DP IV
# Assay type: biochemical
# Conditions: Gly-Pro-pNA 0.4 mM, HEPES pH 7.6, 30° C.; read-out: IC50
# Protocol: 100 μl inhibitor stock solution were mixed with 100 μl buffer (HEPES pH 7.6) and 50 μl substrate (Gly-Pro-pNA, final concentration 0.4 mM) and preincubated at 30° C. Reaction was started by addition of 20 μl purified porcine DP IV. Formation of the product pNA was measured at 405 nm over 10 min using the HTS 7000 Plus plate reader (Perkin Elmer) and slopes were calculated. The final inhibitor concentrations ranged between 1 mM and 30 nM.
# For calculation of IC50-values GraFit 4.0.13 (Erithacus Software) was used.
# Chain of purified porcine DP IV (P22411 whole entry): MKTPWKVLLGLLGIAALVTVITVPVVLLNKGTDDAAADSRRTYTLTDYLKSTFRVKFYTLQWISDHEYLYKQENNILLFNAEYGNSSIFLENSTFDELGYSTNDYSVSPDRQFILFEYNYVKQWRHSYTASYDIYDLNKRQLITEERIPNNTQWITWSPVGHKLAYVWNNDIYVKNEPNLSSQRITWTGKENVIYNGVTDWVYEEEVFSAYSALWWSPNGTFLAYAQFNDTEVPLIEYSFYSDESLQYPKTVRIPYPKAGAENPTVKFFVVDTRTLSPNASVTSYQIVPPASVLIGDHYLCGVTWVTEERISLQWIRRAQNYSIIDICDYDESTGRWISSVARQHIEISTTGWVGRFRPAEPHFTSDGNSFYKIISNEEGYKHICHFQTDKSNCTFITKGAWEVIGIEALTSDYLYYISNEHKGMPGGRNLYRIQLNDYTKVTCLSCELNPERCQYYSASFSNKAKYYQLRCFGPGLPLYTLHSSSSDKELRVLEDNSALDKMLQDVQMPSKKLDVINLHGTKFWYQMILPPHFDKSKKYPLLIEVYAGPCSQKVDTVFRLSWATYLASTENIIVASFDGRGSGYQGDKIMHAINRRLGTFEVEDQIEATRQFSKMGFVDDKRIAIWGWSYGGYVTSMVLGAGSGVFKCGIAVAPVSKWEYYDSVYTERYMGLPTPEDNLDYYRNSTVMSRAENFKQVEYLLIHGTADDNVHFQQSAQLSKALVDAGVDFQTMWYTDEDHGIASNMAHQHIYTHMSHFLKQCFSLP
smiles,measurement,value
CC[C@H](C)[C@H](NC(=O)[C@@H]1CCCN1C(=O)[C@@H](N)C(C)(C)C)C(=O)O [t-butyl-Gly-Pro-Ile] (H-[Tle]-Pro-Ile-OH; N-terminus and C-terminus assumed),pIC50,5.03
